Columns and labels:
[1] = biological target: T1, FGFR2^WT (Homo sapiens, UniProt P21802); assay: FGF2-induced ERK1/2 phosphorylation in HEK293 cells, FGFR2 WT; format: cell-based; details: stable HEK293 FGFR2^WT cells; FGF2 0.5 ng/ml 5 min; average±sem, three experiments; read-out: IC50 value, inhibition of FGF2 induced ERK1/2 phosphorylation
T1 construct: expressed in transfected cells
Procedure: HEK293 cells were either transiently of stably transfected (using FuGENE 6, Roche) with hFGFR2IIIca or hFGFR2IIIca-Y328D cloned in pcDNA3 (Invitrogen). Stably transfected cells were grown in G418 (400 μg/ml) containing medium. Before stimulation, the cells were starved overnight in DMEM (0% serum), and pre-incubated with […] at the required concentration. The cells were subsequently stimulated with FGF2 (concentration between 0.5-10 ng/ml) for 5 min at 37° C. with or without SSR or SU5402 at 1 μM. After washing with ice-cold phosphate-buffered saline containing phosphatase inhibitors (Roche), cells were lysed in RIPA buffer (Tris 30 mM HCl pH 7.5, 150 mM NaCl, 1 mM EDTA, 1% triton-X, 0.5% w/v deoxycholate, containing phophatase and protease inhibitors as described by the manufacturer (Roche)). Cell lysates were centrifuged at 12,000 g for 10 min, and the supernatants were collected. Proteins were separated on Novex polyacrylamide gels (Invitrogen, Carlsbad, Calif.) and subsequently transferred onto Hybond ECL nitrocellulose membranes (Amersham Pharmacia). Following incubation with 5% non-fat milk powder in PBS, the membranes were incubated overnight at 4° C. with the following antibodies: phospho-ERK1/2 (CST:9101), phospho-FRS2 (CST:3861), phospho-PLCγ (CST:2821) and FGFR2 (F0300, Sigma).

[2] = biological target: FGFR2^∂23-Y328D (Homo sapiens, UniProt P21802, Y328D); assay: FTIR measurement, FGFR2 Y328D mutant; set-up: FGFR2^∂23 (consisting of domain D2 and 3); made in house; details: 100 μM SSR
FGFR2^∂23-Y328D, sequence (P21802 148-366 Y328D limits assumed): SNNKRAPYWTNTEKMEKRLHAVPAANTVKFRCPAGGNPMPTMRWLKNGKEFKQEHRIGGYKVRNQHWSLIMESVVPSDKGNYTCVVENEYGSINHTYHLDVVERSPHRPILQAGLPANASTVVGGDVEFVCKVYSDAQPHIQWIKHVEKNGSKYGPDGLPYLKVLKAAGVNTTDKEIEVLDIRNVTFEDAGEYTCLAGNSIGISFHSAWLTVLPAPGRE
Procedure: (§1) Fourier transform infrared measurements were performed using a Bruker Tensor 37 FT-IR spectrometer equipped with an AquaSpec flowcell. The sample compartment was thermostatted to 25° C., 100 spectra were averaged for a good signal to noise ratio. Proteins were purified as described above. Immediately after the gelfiltration, the proteins were dialysed overnight in the same preparation of buffer (10 mM Hepes pH 7.2, 150 mM NaCl) in the presence or absence of SSR. Dialysis buffer samples were used to substract background signal. The analysis was performed using the OPUS software package, provided by Bruker. Interpretation of the results was performed as described {Barth, 2002 #60}.
We next explored whether SSR bound to amino acid residues that form part of the orthosteric site in D3 or to an alternative allosteric site. Initially, we used the molecular docking algorithms of the software packages MOLEGRO, Autodock and YASARA and available crystallographic data. […] These findings are consistent with a model whereby SSR binds to an allosteric site formed by a hydrophobic pocket near the orthosteric ligand binding site, and in which residue Tyr^328 seems to be critical for mediating the interaction between SSR to FGFR2. We also analyzed the FTIR spectrum of the aforementioned mutated FGFR2 fragments.

[3] = biological target: T2, FGFR1 (PAE-FGFR1) (Homo sapiens, UniProt P11362); assay: I125-FGF2 binding assay on PAE-FGFR1 cells; details: porcine aortic endothelial cells overexpressing FGFR1; SSR even at high μM concentrations
T2 construct: or the expression of the entire intact receptor in its native environment; expressed in transfected cells; host or cells: porcine aortic endothelial cells (PAE)
T2 sequence (P11362 22-822): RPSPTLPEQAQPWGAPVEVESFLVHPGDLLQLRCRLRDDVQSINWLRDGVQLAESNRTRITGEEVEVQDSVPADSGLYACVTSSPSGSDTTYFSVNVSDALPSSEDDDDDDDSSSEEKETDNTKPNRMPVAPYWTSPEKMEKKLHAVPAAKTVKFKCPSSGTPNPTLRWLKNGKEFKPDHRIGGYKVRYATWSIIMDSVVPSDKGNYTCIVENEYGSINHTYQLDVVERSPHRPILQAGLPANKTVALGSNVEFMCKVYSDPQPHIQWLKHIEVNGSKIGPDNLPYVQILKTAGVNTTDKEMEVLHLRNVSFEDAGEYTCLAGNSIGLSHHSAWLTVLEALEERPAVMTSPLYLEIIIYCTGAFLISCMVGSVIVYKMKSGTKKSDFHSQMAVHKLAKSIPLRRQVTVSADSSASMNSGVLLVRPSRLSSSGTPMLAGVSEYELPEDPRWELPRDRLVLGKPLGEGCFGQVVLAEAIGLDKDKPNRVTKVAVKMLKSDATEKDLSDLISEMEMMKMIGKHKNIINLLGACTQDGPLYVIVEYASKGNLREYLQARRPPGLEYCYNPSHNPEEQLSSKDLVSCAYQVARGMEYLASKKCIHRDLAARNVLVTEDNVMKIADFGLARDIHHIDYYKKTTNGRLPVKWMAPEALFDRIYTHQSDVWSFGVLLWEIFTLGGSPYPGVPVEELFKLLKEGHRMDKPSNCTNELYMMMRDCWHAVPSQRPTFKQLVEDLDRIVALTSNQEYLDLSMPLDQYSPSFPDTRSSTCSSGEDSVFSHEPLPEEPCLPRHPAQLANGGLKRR

[4] = biological target: T3, FGFR2^∂23 (Homo sapiens, UniProt P21802); assay: Fourier transform infrared (FTIR) measurement, FGFR2 D2-3; details: maximum around 1,640 cm^−1, 100 μM SSR
T3 construct: FGFR2^∂23 (consisting of domain D2 and 3); made in house
T3 sequence (P21802 148-366 limits assumed): as the sequence (P21802 148-366 Y328D limits assumed) above, with D181Y counted along it
Procedure: as §1

T1 sequence (P21802 22-821): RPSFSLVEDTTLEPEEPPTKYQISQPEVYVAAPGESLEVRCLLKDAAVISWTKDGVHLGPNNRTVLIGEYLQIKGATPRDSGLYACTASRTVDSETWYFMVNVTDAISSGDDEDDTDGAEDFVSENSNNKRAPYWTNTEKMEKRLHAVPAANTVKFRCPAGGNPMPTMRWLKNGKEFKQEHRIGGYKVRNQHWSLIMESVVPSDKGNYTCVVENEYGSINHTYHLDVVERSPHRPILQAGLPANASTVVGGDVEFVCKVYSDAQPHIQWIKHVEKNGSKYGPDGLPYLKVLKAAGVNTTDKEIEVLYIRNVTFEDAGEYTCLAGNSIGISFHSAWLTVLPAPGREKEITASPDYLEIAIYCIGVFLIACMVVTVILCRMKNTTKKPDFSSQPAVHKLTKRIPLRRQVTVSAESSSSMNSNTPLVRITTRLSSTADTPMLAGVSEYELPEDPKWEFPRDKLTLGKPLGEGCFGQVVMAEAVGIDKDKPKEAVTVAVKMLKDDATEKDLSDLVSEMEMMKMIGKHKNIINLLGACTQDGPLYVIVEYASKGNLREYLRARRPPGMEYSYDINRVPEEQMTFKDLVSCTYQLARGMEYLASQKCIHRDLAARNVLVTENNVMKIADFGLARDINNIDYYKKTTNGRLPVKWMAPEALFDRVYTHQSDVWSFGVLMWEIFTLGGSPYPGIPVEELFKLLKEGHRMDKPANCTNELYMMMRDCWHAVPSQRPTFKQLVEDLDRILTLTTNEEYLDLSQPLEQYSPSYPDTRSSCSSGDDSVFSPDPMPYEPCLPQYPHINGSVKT

COc1c(C)c(C(=O)c2ccc(N)c(C(=O)[O-])c2)n2ccccc12.[Na+] [SSR]
IC50 [1]: 28 ± 12 nM
change of FTIR spectrum (conformational change) [2]: failed to induce this change
inhibition of I^125-FGF2 binding to its receptor [3]: unable to inhibit I^125-FGF2 binding
change of FTIR spectrum (conformational change) [4]: increase in the amplitude of the amide I band

Reference: US9234025B2, “Extracellular allosteric inhibitor binding domain from a tyrosine kinase receptor” (SANOFI, priority 2009, dated 2016)
